Patent US20100173943A1, “INSECTICIDAL COMPOSITIONS WITH IMPROVED ACTION” (BAYER CROPSCIENCE AG, priority 2007, published 2010)

Tests used:
[1] = system: green peach aphid (Myzus persicae); experiment: Myzus persicae test (MYZUPE); assay type: in vivo; conditions: pepper plants sprayed, 6 days; for pest or weed control at 0.8 ppm: 0.8 ppm a.i. alone; for pest or weed control at 4 ppm: 4 ppm a.i. alone
Experimental: Myzus persicae Test (MYZUPE)
(§1) Solvent: 7 parts by weight of dimethylformamide
(§2) Emulsifier: 2 parts by weight of alkylaryl polyglycol ether
(§3) To prepare an appropriate active ingredient formulation, 1 part by weight of active ingredient is mixed with the given amounts of solvent and emulsifier, and the concentrate is diluted with emulsifier-containing water to the desired concentration. In the case that addition of ammonium salts, penetrants, or ammonium salts and penetrants is required, they are pippetted in each case into the finished preparation solution after dilution in a concentration of 1000 ppm each.
Pepper plants (Capsicum annuum) highly infested by the green peach aphid (Myzus persicaei) are treated by spraying with the active ingredient formulation in the desired concentration.
After the desired time, the kill rate in % is determined. 100% means that all animals have been killed; 0% means that no animals have been killed.

[2] = system: cotton aphid (Aphis gossypii); experiment: Aphis gossypii test (APHIGO spray treatment); assay type: in vivo; conditions: cotton leaves sprayed, 6 days; for pest or weed control at 0.8 ppm: 0.8 ppm a.i. alone; for pest or weed control at 4 ppm: 4 ppm a.i. alone
Experimental: Aphis gossypii Test (APHIGO Spray Treatment)
as §1, §2
as §3, with “a ready-to-use” for “an appropriate”, “specified” for “given”, “emulsifier” for “emulsifier,”, “pipetted” for “pippetted”
Cotton leaves (Gossypium hirsutum) highly infested by the cotton aphid (Aphis gossypii) are sprayed with an active ingredient formulation with the desired concentration.
After the desired period, the kill rate in % is determined. 100% means that all aphids have been killed; 0% means that no aphids have been killed.

[3] = 100 ppm a.i. + AMS and RME 1000 ppm each
[4] = 100 ppm a.i. + ammonium sulphate 1000 ppm
[5] = 100 ppm a.i. + rapeseed oil methyl ester 1000 ppm
[6] = 0.8 ppm a.i. + AMS and RME 1000 ppm each
[7] = 0.8 ppm a.i. + ammonium sulphate 1000 ppm
[8] = 0.8 ppm a.i. + rapeseed oil methyl ester 1000 ppm
[9] = Myzus persicae, 144 h, read-out: Kill in % after 6 days a.i.
[10] = 20 ppm a.i. + AMS and RME 1000 ppm each
[11] = 20 ppm a.i. + ammonium sulphate 1000 ppm
[12] = 20 ppm a.i. + rapeseed oil methyl ester 1000 ppm
[13] = 4 ppm a.i. + AMS and RME 1000 ppm each
[14] = 4 ppm a.i. + ammonium sulphate 1000 ppm
[15] = 4 ppm a.i. + rapeseed oil methyl ester 1000 ppm
[16] = Aphis gossypii, 144 h, read-out: Kill in % after 6 days a.i.
[17] = 0.16 ppm a.i. + AMS and RME 1000 ppm each
[18] = 0.16 ppm a.i. + ammonium sulphate 1000 ppm
[19] = 0.16 ppm a.i. + rapeseed oil methyl ester 1000 ppm

| Compound | Kill in % after 6 days +AMS + RME [1, 6] [%] | Kill in % after 6 days +AMS [1, 7] [%] | Kill in % after 6 days +RME [1, 8] [%] | pest or weed control at 0.8 ppm [1, 9] [%] | Kill in % after 6 days +AMS + RME [1, 13] [%] | Kill in % after 6 days +AMS [1, 14] [%] | Kill in % after 6 days +RME [1, 15] [%] | pest or weed control at 4 ppm [1, 9] [%] | Kill in % after 6 days +AMS + RME [2, 6] [%] | Kill in % after 6 days +AMS [2, 7] [%] | Kill in % after 6 days +RME [2, 8] [%] | pest or weed control at 0.8 ppm [2, 16] [%] | other results |
| --- | --- | --- | --- | --- | --- | --- | --- | --- | --- | --- | --- | --- | --- |
| CCCN(Cc1ccc(Cl)nc1)C1=CC(=O)CCC1 [Compound I-34, 3-{[(6-chloropyrid-3-yl)methyl](propyl)amino}cyclohex-2-en-1-one] | – | – | – | – | – | – | – | – | – | – | – | – | Kill in % after 6 days +AMS + RME [1, 3]: 85%; Kill in % after 6 days +AMS [1, 4]: 50%; Kill in % after 6 days +RME [1, 5]: 85%; pest or weed control at 100 ppm ([1]; Myzus persicae, 144 h, 100 ppm a.i. alone, read-out: Kill in % after 6 days a.i.): 40%; Kill in % after 6 days +AMS + RME [2, 3]: 45%; Kill in % after 6 days +AMS [2, 4]: 20%; Kill in % after 6 days +RME [2, 5]: 40%; pest or weed control at 100 ppm ([2]; Aphis gossypii, 144 h, 100 ppm a.i. alone, read-out: Kill in % after 6 days a.i.): 15% |
| CCN(Cc1ccc(Cl)nc1)C1=CC(=O)OC1 [Compound I-30, 4-{[(6-chloropyrid-3-yl)methyl](ethyl)amino}furan-2(5H)-one] | 45 | 25 | 95 | 5 | – | – | – | – | – | – | – | – | Kill in % after 6 days +AMS + RME [2, 10]: 95%; Kill in % after 6 days +AMS [2, 11]: 100%; Kill in % after 6 days +RME [2, 12]: 100%; pest or weed control at 20 ppm ([2]; Aphis gossypii, 144 h, 20 ppm a.i. alone, read-out: Kill in % after 6 days a.i.): 80% |
| CN(Cc1ccc(Cl)nc1)C1=CC(=O)CC1 [Compound I-18, 3-{[(6-chloropyrid-3-yl)methyl](methyl)amino}cyclopent-2-en-1-one] | 70 | 0 | 98 | 25 | 100 | 95 | 100 | 80 | 90 | 50 | 75 | 65 | – |
| CON(Cc1ccc(Cl)nc1)C1=CC(=O)OC1 [Compound I-29, 4-{[(6-chloropyrid-3-yl)methyl](methoxy)amino}furan-2(5H)-one] | 50 | 0 | 30 | 0 | – | – | – | – | – | – | – | – | Kill in % after 6 days +AMS + RME [2, 13]: 75%; Kill in % after 6 days +AMS [2, 14]: 65%; Kill in % after 6 days +RME [2, 15]: 50%; pest or weed control at 4 ppm [2, 16]: 50% |
| O=C1C=C(N(Cc2ccc(F)nc2)C2CC2)CO1 [Compound I-22, 4-{cyclopropyl[(6-fluoropyrid-3-yl)methyl]amino}furan-2(5H)-one] | – | – | – | – | 80 | 0 | 70 | 5 | 45 | 20 | 30 | 25 | Kill in % after 6 days +AMS + RME [1, 10]: 90%; Kill in % after 6 days +AMS [1, 11]: 80%; Kill in % after 6 days +RME [1, 12]: 85%; pest or weed control at 20 ppm ([1]; Myzus persicae, 144 h, 20 ppm a.i. alone, read-out: Kill in % after 6 days a.i.): 65%; Kill in % after 6 days +AMS + RME [2, 13]: 65%; Kill in % after 6 days +AMS [2, 14]: 70%; Kill in % after 6 days +RME [2, 15]: 55%; pest or weed control at 4 ppm [2, 16]: 60% |
| O=C1C=C(N(CCF)Cc2cnc(Cl)c(Cl)c2)CO1 [Compound I-14, 4-{[(5,6-dichloropyrid-3-yl)methyl](2-fluoroethyl)amino}furan-2(5H)-one] | – | – | – | – | 95 | 60 | 95 | 25 | 70 | 5 | 40 | 0 | – |
| O=C1C=C(N(Cc2ccc(Cl)nc2)C2CC2)CO1 [Compound I-31, 4-{[(6-chloropyrid-3-yl)methyl](cyclopropyl)amino}furan-2(5H)-one] | 95 | 80 | 100 | 50 | – | – | – | – | 80 | 65 | 80 | 50 | Kill in % after 6 days +AMS + RME [2, 17]: 60%; Kill in % after 6 days +AMS [2, 18]: 30%; Kill in % after 6 days +RME [2, 19]: 15%; pest or weed control at 0.16 ppm ([2]; Aphis gossypii, 144 h, 0.16 ppm a.i. alone, read-out: Kill in % after 6 days a.i.): 0% |
| O=C1C=C(N(CCF)Cc2ccc(Br)nc2)CO1 [Compound I-1, 4-{[(6-bromopyrid-3-yl)methyl](2-fluoroethyl)amino}furan-2(5H)-one] | 35 | 0 | 25 | 0 | 99 | 95 | 99 | 35 | 95 | 20 | 50 | 25 | – |
| CN(Cc1ccc(Br)nc1)C1=CC(=O)OC1 [Compound I-26, 4-{[(6-bromopyrid-3-yl)methyl](methyl)amino}furan-2(5H)-one] | 95 | 55 | 100 | 65 | – | – | – | – | 98 | 70 | 98 | 90 | – |
| O=C1C=C(N(Cc2cnc(Cl)c(F)c2)CC(F)F)CO1 [Compound I-17, 4-{[(6-chloro-5-fluoropyrid-3-yl)methyl](2,2-difluoroethyl)amino}furan-2(5H)-one] | 25 | 5 | 35 | 0 | 100 | 99 | 100 | 95 | 40 | 20 | 40 | 0 | – |
| CN(Cc1cnc(Br)c(F)c1)C1=CC(=O)OC1 [Compound I-11, 4-{[(6-bromo-5-fluoropyrid-3-yl)methyl](methyl)amino}furan-2(5H)-one] | 99 | 95 | 99 | 85 | – | – | – | – | 99 | 55 | 95 | 15 | Kill in % after 6 days +AMS + RME [1, 17]: 90%; Kill in % after 6 days +AMS [1, 18]: 0%; Kill in % after 6 days +RME [1, 19]: 0%; pest or weed control at 0.16 ppm ([1]; Myzus persicae, 144 h, 0.16 ppm a.i. alone, read-out: Kill in % after 6 days a.i.): 0% |
